Measurements: ChEMBL document CHEMBL3991601, “The target landscape of clinical kinase drugs” (Science, 2017)
pKd: −log10 of the molar value. Calls of active or inactive are those of the source. Cut-off read from the data, not from the text of the source, for most assays here: actives have a measured Kd and inactives only a lower limit.

Columns and labels:
[1] = molecular target: T1, Serine/threonine-protein kinase LATS1 (Homo sapiens, UniProt O95835)
T1 sequence (O95835 whole entry): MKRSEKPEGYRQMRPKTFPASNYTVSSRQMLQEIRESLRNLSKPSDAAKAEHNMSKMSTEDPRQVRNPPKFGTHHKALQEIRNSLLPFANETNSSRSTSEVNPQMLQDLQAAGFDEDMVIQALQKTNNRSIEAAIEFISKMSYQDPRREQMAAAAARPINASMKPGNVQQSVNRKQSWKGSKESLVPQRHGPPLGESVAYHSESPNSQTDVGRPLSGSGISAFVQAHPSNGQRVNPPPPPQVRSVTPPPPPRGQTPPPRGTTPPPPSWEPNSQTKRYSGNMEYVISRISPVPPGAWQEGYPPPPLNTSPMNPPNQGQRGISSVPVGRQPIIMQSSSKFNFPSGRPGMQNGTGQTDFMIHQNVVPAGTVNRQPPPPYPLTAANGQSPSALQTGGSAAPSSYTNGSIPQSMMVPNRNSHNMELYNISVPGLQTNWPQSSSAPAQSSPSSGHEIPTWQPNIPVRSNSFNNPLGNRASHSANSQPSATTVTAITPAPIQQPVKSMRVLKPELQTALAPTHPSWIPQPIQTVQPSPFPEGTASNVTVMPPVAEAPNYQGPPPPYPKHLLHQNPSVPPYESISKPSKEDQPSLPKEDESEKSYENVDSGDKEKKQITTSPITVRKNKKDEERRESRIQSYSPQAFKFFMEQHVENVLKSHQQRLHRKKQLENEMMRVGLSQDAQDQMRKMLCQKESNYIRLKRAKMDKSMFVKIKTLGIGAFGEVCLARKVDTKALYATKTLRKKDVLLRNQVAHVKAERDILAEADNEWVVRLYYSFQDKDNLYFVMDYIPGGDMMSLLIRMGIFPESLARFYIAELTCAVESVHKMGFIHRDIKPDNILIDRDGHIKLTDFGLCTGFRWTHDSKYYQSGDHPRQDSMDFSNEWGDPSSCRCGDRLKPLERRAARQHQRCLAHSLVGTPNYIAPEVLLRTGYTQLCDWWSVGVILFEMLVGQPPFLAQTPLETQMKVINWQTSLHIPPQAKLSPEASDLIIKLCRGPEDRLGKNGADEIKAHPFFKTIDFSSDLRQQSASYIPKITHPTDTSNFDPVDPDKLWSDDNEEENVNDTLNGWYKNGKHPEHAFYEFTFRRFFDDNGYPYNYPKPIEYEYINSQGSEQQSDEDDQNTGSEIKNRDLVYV

[2] = molecular target: Platelet-derived growth factor receptor beta (Homo sapiens, UniProt P09619)
[3] = molecular target: Protein-tyrosine kinase 2-beta (Homo sapiens, UniProt Q14289)
[4] = molecular target: Cyclin-dependent kinase 1 (Homo sapiens, UniProt P06493)
[5] = molecular target: Epithelial discoidin domain-containing receptor 1 (Homo sapiens, UniProt Q08345)
[6] = molecular target: T2, Ribosyldihydronicotinamide dehydrogenase [quinone] (Homo sapiens, UniProt P16083)
T2 sequence (P16083 whole entry): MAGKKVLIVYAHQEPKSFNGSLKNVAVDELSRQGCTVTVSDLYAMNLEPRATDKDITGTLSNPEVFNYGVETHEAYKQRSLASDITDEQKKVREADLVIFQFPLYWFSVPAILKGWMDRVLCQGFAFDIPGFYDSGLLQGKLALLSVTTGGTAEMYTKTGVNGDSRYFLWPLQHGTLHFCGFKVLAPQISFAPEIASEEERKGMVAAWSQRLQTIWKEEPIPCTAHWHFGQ

[7] = molecular target: Deoxycytidine kinase (Homo sapiens, UniProt P27707)
[8] = molecular target: Mitogen-activated protein kinase kinase kinase 1 (Homo sapiens, UniProt Q13233)
[9] = molecular target: Putative heat shock protein HSP 90-beta 2 (Homo sapiens, UniProt Q58FF8)
[10] = molecular target: Tyrosine-protein kinase SYK (Homo sapiens, UniProt P43405)
[11] = molecular target: Serine/threonine-protein kinase PAK 2 (Homo sapiens, UniProt Q13177)
[12] = molecular target: T3, Serine/threonine-protein kinase Nek3 (Homo sapiens, UniProt P51956)
T3 sequence (P51956 whole entry): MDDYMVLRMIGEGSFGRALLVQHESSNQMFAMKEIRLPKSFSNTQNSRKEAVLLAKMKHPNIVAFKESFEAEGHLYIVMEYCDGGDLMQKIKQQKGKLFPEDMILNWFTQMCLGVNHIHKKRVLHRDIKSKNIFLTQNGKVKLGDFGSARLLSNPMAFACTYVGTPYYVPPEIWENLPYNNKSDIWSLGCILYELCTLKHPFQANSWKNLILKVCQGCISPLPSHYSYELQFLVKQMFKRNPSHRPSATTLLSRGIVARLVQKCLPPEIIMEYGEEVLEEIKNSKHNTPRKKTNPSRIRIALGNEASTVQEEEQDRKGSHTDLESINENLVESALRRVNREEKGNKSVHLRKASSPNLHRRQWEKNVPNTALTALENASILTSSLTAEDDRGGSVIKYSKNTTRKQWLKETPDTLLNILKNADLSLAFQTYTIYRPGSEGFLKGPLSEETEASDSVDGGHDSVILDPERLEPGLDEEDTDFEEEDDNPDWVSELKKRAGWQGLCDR
Note: in the data inactive means no Kd found up to 30 µM.

Mitogen-activated protein kinase kinase kinase 1, sequence (Q13233 whole entry): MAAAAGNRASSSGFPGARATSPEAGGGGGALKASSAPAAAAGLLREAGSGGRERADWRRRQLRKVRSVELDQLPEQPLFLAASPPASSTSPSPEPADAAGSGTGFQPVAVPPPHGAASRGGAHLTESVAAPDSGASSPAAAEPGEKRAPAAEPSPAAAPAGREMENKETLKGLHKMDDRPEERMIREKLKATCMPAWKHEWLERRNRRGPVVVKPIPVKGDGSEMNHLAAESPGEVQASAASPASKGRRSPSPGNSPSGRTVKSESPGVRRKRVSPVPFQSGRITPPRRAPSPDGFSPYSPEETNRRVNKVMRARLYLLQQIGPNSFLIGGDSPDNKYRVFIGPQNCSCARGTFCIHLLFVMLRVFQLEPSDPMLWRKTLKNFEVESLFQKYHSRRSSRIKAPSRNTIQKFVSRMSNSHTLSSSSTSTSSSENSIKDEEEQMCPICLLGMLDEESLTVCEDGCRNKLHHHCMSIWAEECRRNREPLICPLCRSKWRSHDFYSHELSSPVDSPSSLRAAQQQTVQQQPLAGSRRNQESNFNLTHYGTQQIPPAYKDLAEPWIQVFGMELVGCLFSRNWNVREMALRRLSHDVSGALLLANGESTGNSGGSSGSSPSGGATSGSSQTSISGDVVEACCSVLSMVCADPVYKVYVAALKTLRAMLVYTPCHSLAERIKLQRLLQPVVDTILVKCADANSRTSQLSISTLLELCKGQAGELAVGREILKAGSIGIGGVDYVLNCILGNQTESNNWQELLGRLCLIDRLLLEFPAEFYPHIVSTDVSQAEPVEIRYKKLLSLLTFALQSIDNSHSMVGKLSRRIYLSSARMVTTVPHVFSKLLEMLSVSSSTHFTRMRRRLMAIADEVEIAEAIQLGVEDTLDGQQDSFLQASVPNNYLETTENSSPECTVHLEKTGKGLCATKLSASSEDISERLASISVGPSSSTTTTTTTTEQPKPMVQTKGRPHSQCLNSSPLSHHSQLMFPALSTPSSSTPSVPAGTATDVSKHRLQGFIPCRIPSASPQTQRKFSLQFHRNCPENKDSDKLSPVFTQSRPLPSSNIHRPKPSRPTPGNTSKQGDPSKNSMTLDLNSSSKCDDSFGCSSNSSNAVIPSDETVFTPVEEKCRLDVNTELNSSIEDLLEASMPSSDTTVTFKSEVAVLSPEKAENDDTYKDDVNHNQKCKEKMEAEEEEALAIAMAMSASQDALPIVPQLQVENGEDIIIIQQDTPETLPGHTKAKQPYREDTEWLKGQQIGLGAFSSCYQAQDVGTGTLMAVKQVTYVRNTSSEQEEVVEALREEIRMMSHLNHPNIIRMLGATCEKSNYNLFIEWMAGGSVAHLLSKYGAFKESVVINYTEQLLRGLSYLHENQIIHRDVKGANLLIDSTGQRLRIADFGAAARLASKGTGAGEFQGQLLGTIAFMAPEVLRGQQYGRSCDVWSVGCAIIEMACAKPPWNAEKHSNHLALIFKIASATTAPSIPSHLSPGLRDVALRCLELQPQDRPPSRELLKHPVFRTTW
Protein-tyrosine kinase 2-beta, sequence (Q14289 whole entry): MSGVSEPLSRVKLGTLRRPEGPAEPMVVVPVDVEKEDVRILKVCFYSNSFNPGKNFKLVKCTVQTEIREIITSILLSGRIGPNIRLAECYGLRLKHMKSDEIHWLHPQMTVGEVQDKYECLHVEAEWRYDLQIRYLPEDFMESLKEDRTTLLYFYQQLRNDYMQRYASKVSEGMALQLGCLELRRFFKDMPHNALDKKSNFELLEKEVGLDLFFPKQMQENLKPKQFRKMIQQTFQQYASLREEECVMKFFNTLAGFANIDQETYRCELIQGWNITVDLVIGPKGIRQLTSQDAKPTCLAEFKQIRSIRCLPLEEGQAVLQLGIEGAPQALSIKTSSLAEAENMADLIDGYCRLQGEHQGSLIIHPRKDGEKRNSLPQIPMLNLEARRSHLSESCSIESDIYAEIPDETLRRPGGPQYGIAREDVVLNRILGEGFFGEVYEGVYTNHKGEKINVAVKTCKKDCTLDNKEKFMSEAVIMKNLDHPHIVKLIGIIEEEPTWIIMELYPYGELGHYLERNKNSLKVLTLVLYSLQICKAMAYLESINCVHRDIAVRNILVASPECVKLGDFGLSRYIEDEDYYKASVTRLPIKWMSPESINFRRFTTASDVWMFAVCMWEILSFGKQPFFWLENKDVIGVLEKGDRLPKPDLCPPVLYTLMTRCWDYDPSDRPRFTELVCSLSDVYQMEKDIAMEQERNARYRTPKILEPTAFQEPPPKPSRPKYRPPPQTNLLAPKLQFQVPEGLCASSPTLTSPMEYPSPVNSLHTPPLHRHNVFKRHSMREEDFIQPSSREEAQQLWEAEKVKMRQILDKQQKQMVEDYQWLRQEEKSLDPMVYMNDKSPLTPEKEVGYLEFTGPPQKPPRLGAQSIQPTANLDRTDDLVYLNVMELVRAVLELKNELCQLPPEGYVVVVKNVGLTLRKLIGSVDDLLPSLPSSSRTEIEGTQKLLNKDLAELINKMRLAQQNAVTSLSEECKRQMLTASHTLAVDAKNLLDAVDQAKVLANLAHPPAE
Putative heat shock protein HSP 90-beta 2, sequence (Q58FF8 whole entry): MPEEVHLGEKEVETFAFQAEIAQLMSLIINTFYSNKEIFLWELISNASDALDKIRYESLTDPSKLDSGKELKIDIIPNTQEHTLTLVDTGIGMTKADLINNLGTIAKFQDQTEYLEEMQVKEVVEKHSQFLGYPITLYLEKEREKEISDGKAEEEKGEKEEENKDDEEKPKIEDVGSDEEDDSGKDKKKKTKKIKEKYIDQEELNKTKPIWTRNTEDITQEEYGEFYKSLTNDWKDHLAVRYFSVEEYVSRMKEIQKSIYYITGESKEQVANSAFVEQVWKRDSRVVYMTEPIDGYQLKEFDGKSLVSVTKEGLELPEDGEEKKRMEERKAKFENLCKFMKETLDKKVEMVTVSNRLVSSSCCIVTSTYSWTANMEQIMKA
Cyclin-dependent kinase 1, sequence (P06493 whole entry, the tested form may be a part): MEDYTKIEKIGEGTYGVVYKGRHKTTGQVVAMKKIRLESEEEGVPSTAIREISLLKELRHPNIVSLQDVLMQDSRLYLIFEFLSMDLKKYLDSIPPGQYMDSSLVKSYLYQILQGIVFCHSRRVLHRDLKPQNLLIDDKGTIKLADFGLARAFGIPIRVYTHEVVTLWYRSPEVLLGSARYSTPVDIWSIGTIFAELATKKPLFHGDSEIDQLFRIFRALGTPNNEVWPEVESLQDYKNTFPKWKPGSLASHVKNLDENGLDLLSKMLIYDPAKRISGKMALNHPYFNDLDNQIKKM
Platelet-derived growth factor receptor beta, sequence (P09619 whole entry): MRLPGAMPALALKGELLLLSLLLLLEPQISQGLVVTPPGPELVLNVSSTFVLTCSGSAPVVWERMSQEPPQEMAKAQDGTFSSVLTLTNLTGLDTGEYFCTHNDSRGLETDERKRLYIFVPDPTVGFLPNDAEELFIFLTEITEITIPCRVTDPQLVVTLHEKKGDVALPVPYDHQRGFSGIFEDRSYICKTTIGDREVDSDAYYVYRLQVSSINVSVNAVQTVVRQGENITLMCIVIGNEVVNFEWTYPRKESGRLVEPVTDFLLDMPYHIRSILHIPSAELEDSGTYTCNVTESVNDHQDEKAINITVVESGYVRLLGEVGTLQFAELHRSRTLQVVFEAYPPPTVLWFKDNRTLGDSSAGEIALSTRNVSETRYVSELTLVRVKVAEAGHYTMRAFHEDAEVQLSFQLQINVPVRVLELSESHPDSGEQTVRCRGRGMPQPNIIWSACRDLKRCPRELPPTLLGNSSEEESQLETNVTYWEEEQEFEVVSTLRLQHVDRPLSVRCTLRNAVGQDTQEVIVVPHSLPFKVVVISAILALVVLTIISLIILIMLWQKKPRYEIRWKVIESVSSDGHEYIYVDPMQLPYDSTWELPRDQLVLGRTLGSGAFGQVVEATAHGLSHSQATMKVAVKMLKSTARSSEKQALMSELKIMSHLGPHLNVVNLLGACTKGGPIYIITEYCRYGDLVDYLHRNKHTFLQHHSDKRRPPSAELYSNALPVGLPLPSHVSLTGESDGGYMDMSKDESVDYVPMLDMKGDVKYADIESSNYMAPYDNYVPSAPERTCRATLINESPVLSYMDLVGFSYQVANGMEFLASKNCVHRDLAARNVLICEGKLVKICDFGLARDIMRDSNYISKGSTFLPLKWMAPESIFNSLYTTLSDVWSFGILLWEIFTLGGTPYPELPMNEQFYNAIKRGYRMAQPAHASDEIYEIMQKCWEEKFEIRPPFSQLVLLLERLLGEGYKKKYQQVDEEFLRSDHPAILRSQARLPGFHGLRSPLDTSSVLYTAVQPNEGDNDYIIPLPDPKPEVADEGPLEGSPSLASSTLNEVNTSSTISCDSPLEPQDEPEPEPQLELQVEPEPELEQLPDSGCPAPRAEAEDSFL
Serine/threonine-protein kinase PAK 2, sequence (Q13177 whole entry): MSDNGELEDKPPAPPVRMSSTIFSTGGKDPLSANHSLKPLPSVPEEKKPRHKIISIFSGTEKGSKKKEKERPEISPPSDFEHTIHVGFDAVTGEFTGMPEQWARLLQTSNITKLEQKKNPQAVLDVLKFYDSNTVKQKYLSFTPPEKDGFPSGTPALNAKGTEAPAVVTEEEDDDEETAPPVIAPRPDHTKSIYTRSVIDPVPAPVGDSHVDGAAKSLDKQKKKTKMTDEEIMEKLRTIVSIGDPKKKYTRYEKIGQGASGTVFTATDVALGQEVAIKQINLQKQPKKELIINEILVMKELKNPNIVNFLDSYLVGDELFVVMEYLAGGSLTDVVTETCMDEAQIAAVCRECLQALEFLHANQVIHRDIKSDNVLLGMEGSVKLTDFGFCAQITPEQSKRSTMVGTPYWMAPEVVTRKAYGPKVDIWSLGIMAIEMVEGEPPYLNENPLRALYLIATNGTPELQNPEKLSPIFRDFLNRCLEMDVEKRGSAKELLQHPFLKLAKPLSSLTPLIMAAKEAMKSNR

Kd [1]	Kd [2]	Kd [3]	Kd [4]	Kd [5]	Kd [6]	Kd [7]	Kd [8]	Kd [9]	Kd [10]	Kd [11]	Kd [12]	pKd [6]	SMILES
> 30 µM (inactive)	> 30 µM (inactive)	> 30 µM (inactive)	> 30 µM (inactive)	> 30 µM (inactive)	> 30 µM (inactive)	> 30 µM (inactive)	> 30 µM (inactive)	> 30 µM (inactive)	> 30 µM (inactive)	> 30 µM (inactive)	> 30 µM (inactive)	–	N[C@@H]1CCCN(c2c(/C=C3\SC(=O)NC3=O)cccc2-c2ccccc2)C1
> 30 µM (inactive)	> 30 µM (inactive)	> 30 µM (inactive)	> 30 µM (inactive)	> 30 µM (inactive)	> 30 µM (inactive)	> 30 µM (inactive)	> 30 µM (inactive)	–	> 30 µM (inactive)	> 30 µM (inactive)	> 30 µM (inactive)	–	Cc1ccc(S(=O)(=O)Nc2nc3ccccc3nc2Nc2ccc3nsnc3c2)cc1
> 30 µM (inactive)	9.38 µM (active)	> 30 µM (inactive)	> 30 µM (inactive)	5.22 µM (active)	> 30 µM (inactive)	> 30 µM (inactive)	> 30 µM (inactive)	> 30 µM (inactive)	> 30 µM (inactive)	> 30 µM (inactive)	38.1 µM (active)	–	CCN1CCN(Cc2ccc(-c3cc4c(N[C@H](C)c5ccccc5)ncnc4[nH]3)cc2)CC1 [AEE-788]
> 30 µM (inactive)	> 30 µM (inactive)	> 30 µM (inactive)	> 30 µM (inactive)	> 30 µM (inactive)	> 30 µM (inactive)	> 30 µM (inactive)	> 30 µM (inactive)	> 30 µM (inactive)	> 30 µM (inactive)	> 30 µM (inactive)	> 30 µM (inactive)	–	Cn1ncc(Cl)c1-c1cc(C(=O)N[C@H](CN)Cc2cccc(F)c2)sc1Cl [AFURESERTIB]
> 30 µM (inactive)	> 30 µM (inactive)	> 30 µM (inactive)	> 30 µM (inactive)	> 30 µM (inactive)	> 30 µM (inactive)	> 30 µM (inactive)	> 30 µM (inactive)	> 30 µM (inactive)	> 30 µM (inactive)	> 30 µM (inactive)	> 30 µM (inactive)	–	CNS(=O)(=O)Nc1nccc(Cc2c(C)c3ccc(Oc4ncccn4)cc3oc2=O)c1F [AVUTOMETINIB]
> 30 µM (inactive)	0.288 µM (active)	> 30 µM (inactive)	> 30 µM (inactive)	–	> 30 µM (inactive)	> 30 µM (inactive)	> 30 µM (inactive)	> 30 µM (inactive)	> 30 µM (inactive)	> 30 µM (inactive)	> 30 µM (inactive)	–	COc1cc(CCc2cc(NC(=O)c3ccc(N4C[C@@H](C)N[C@@H](C)C4)cc3)n[nH]2)cc(OC)c1 [AZD-4547]
> 30 µM (inactive)	> 30 µM (inactive)	> 30 µM (inactive)	> 30 µM (inactive)	> 30 µM (inactive)	> 30 µM (inactive)	> 30 µM (inactive)	> 30 µM (inactive)	> 30 µM (inactive)	> 30 µM (inactive)	> 30 µM (inactive)	> 30 µM (inactive)	–	Cc1cc([C@@H](C)Nc2ccccc2C(=O)O)c2nc(N3CCOCC3)cc(=O)n2c1 [AZD-6482]
> 30 µM (inactive)	> 30 µM (inactive)	> 30 µM (inactive)	> 30 µM (inactive)	> 30 µM (inactive)	> 30 µM (inactive)	> 30 µM (inactive)	> 30 µM (inactive)	> 30 µM (inactive)	> 30 µM (inactive)	> 30 µM (inactive)	> 30 µM (inactive)	–	COc1ccc(-c2ccc3c(N4CCOC[C@@H]4C)nc(N4CCOC[C@@H]4C)nc3n2)cc1CO [AZD-8055]
> 30 µM (inactive)	3.13 µM (active)	> 30 µM (inactive)	> 30 µM (inactive)	0.014 µM (active)	–	> 30 µM (inactive)	> 30 µM (inactive)	> 30 µM (inactive)	> 30 µM (inactive)	> 30 µM (inactive)	> 30 µM (inactive)	5.16	Cc1ccc(NC(=O)c2ccc(CN3CC[C@H](N(C)C)C3)c(C(F)(F)F)c2)cc1Nc1nccc(-c2cncnc2)n1 [BAFETINIB]
> 30 µM (inactive)	2.78 µM (active)	> 30 µM (inactive)	> 30 µM (inactive)	–	> 30 µM (inactive)	> 30 µM (inactive)	> 30 µM (inactive)	> 30 µM (inactive)	2.68 µM (active)	> 30 µM (inactive)	> 30 µM (inactive)	–	COCCNCc1ccc(-c2cc3nccc(Oc4ccc(NC(=S)NC(=O)Cc5ccc(F)cc5)cc4F)c3s2)nc1 [GLESATINIB]
> 30 µM (inactive)	> 30 µM (inactive)	> 30 µM (inactive)	–	> 30 µM (inactive)	> 30 µM (inactive)	> 30 µM (inactive)	12.5 µM (active)	> 30 µM (inactive)	> 30 µM (inactive)	> 30 µM (inactive)	> 30 µM (inactive)	–	CN(C)C(=O)c1cc2cnc(Nc3ccc(N4CCNCC4)cn3)nc2n1C1CCCC1 [RIBOCICLIB]

SMILES	Kd [1]	Kd [2]	Kd [3]	Kd [4]	Kd [5]	Kd [6]	Kd [7]	Kd [8]	Kd [9]	Kd [10]	Kd [11]	Kd [12]	pKd [6]
CN1CC[C@@H](c2c(O)cc(O)c3c(=O)cc(-c4ccccc4Cl)oc23)[C@@H]1CO	> 30 µM (inactive)	> 30 µM (inactive)	> 30 µM (inactive)	4.23 µM (active)	> 30 µM (inactive)	> 30 µM (inactive)	> 30 µM (inactive)	> 30 µM (inactive)	> 30 µM (inactive)	> 30 µM (inactive)	> 30 µM (inactive)	> 30 µM (inactive)	–
Cc1cc(-c2cc(O)ccc2Cl)cc2nnc(Nc3ccc(OCCN4CCCC4)cc3)nc12	> 30 µM (inactive)	> 30 µM (inactive)	> 30 µM (inactive)	> 30 µM (inactive)	0.003 µM (active)	> 30 µM (inactive)	> 30 µM (inactive)	> 30 µM (inactive)	> 30 µM (inactive)	> 30 µM (inactive)	> 30 µM (inactive)	> 30 µM (inactive)	–
C=CC(=O)N1CCC(Oc2cc3c(Nc4ccc(Cl)c(Cl)c4F)ncnc3cc2OC)CC1 [POZIOTINIB]	> 30 µM (inactive)	> 30 µM (inactive)	> 30 µM (inactive)	> 30 µM (inactive)	> 30 µM (inactive)	> 30 µM (inactive)	> 30 µM (inactive)	> 30 µM (inactive)	–	> 30 µM (inactive)	> 30 µM (inactive)	> 30 µM (inactive)	–
